Experimental data published in PubChem BioAssay AID179 (DTP/NCI, 2004).
Where “and” joins values, the source holds several entries; their conditions need not be identical. Equal entries are not always repeated. Calls of active or inactive are those of the source.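 Rule for the calls: active = compounds giving half or more protection of infected cells from virus-caused growth loss, again on retest; inactive = the rest.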 Where a SMILES comes first, the peptide text is derived from it. The star is where a group is joined. Boc = CC(C)(C)OC(=O)*; OBn = c1ccc(CO*)cc1

Test system: CEM cells HIV-1 protection, formazan growth assay
Experiment: NCI AIDS Antiviral Assay
Conditions: for IC50: measured here: growth of uninfected CEM cells
Procedure, shortened: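 Screen of anti-HIV-1 activity in human CEM cells using a formazan-based growth measurement at five drug concentrations. Hits with 50% or greater protection were repeated, and confirmation required reproducible complete protection.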

CC(C)(C)OC(=O)NC(Cc1ccccc1)C(=O)NC(Cc1ccccc1)C(=O)NCC(=O)OCc1ccccc1 (stereo not drawn) (Boc-Phe-Phe-Gly-OBn; configuration not given here)
EC50: > 200 µM | IC50: 11.5 µM

CCOC(=O)c1ccc(NC(=O)Nc2ncc(Cl)cc2Cl)cc1
EC50: > 200 µM | IC50: > 200 µM

CCCCCC/C=C\CCCCCCCCCc1cc(O)cc(OC)c1O
EC50: > 13.8 µM | IC50: 5.01 µM

Cc1cc(Nc2ccc(S(=O)(=O)O)c3cc(S(=O)(=O)O)cc(S(=O)(=O)O)c23)c2ccccc2n1
EC50: > 200 µM | IC50: > 200 µM

Cc1ccc(/C=C2\NC(=S)N(CN3CCOCC3)C2=O)cc1
EC50: > 200 µM | IC50: 45.7 µM

O/N=C1\CCc2nonc2\C1=N/Nc1ccccc1
EC50: > 200 µM | IC50: > 200 µM

CC(C)C12NC(=O)NC(=O)N1CCS2 (stereo not given)
outcome: inactive

CC1(C)CNC(=O)C2=C(O1)C(=O)OC2
EC50: > 1260 µM | IC50: > 1260 µM

C#CCN(CCC)C(=O)COc1cc2c(O)c3c(O)c(C)c4c(c13)C(=O)C(C)(O/C=C/C(OC)C(C)C(OC(C)=O)C(C)C(O)C(C)C(O)C(C)/C=C/C=C(\C)C(=O)N2)O4 (stereo not given)
EC50: > 200 µM | IC50: 39.8 µM

C=CC(C)(C)C1(CC(OC)OC)C(=O)N(C)c2ccccc21 (stereo not given)
EC50: > 200 µM | IC50: > 200 µM

Clc1ccc(-c2cc(-c3cc(-c4ccc(Cl)cc4)n[nH]3)[nH]n2)cc1
EC50: > 200 µM | IC50: > 200 µM

O=C1CSC(c2ccccc2Cl)N1N1C(=O)CSC1c1ccccc1Cl (stereo not given)
EC50: > 200 µM | IC50: 18.2 µM

Clc1ccc(SSc2ccccc2)cc1
outcome: inactive

CSc1nc2c(nc(N)n2C2OC(CO)C(O)C(O)C2O)c(=O)n1C (stereo not given)
outcome: inactive

CC(=O)OCC1OC(n2c(-c3ccccc3)c(C(C)=O)c(-c3cccc4ccccc34)c(C#N)c2=S)C(OC(C)=O)C(OC(C)=O)C1OC(C)=O (stereo not given)
EC50: > 200 µM | IC50: 85.1 µM and 117 µM

CCCCCC1CC=CC(NC(=O)OCc2ccccc2)C1/C=C/C(=O)CCCCCOC(=O)c1ccc(Br)cc1 (stereo not given)
outcome: inactive

O=C1C(Cl)C(c2cccc([N+](=O)[O-])c2)N1n1cnc2ccccc2c1=O (stereo not given)
EC50: > 10 µM | IC50: > 10 µM

NCCS/C=C\C(=O)O
EC50: > 1700 µM | IC50: > 1700 µM

CCc1nc(N)nc(N)c1-c1ccc(Cl)c(N=NN(C)C)c1
EC50: > 1 µM | IC50: 0.589 µM

CC(=O)NC1c2ccccc2C(C)(C)C12CCC1(CC2)OCCO1 (stereo not given)
EC50: > 200 µM | IC50: > 200 µM

NC(=S)N1N=C2c3ccccc3CC[C@@H]2[C@@H]1c1ccccc1
EC50: > 34.7 µM | IC50: 6.03 µM

c1ccc(N=C2SC(c3ccccc3)(c3ccccc3)c3ccccc32)cc1
EC50: > 200 µM | IC50: > 200 µM

CC1CCC2(C)C(CC=C(C=O)C2(O)C=O)C12CO2 (stereo not given)
outcome: inactive

COc1ccc2cc(C(=O)NCCCNC(=O)c3ccc4cc(OC)ccc4c3)ccc2c1
outcome: inactive

Cc1ncc([N+](=O)[O-])n1CCNC(=O)CCCCCn1ccnc1[N+](=O)[O-]
outcome: inactive

C[C@@H](NC(=O)[C@@H]1C[C@]1(C)COC(=O)c1cc([N+](=O)[O-])cc([N+](=O)[O-])c1)c1cccc2ccccc12
EC50: > 200 µM | IC50: 115 µM

CC1(C)COC(c2ccccc2Br)=N1
EC50: > 200 µM | IC50: > 200 µM

O=C1NC(N2CCOCC2)=N/C1=C\c1ccccc1O
EC50: > 200 µM | IC50: > 200 µM

Cc1cn(C2CC(ON3C(=O)c4ccccc4C3=O)C(CO)O2)c(=O)[nH]c1=O (stereo not given)
EC50: 26.9 µM and > 200 µM | IC50: > 200 µM

C=CCC1NCCC2=C1C(S(=O)(=O)c1ccc(C)cc1)c1ccccc12 (stereo not given)
EC50: > 200 µM | IC50: 10.5 µM

CO/N=C1/C(n2[nH]c(=O)n(-c3ccccc3)c2=O)C2C=CC1n1c(=O)n(-c3ccccc3)c(=O)n12 (stereo not given)
EC50: > 200 µM | IC50: > 200 µM

Cc1ccc(C2=C/C(=C/c3ccc(N(CCC#N)CCC#N)cc3)C(=O)O2)cc1
EC50: > 200 µM | IC50: > 200 µM

CCOC(=O)C(C)(c1cn(C)c2ccccc12)c1cn(C)c2ccccc12
outcome: inactive

COc1ccccc1NC(=S)N/N=C(/C)c1ccccn1
EC50: > 0.2 µM | IC50: 0.0339 µM
